Test results published in US20050019825A9, “Common ligand mimics: pseudothiohydantoins” (priority 2002, published 2005).
Where two headings read alike, the source gives them in different places.

Legend:
Assay type in all cases: biochemical
[1] = biological target: dihydrofolate reductase (DHFR) (UniProt P00374); assay: DHFR kinetic assay, spectrophotometric oxidation of NADH (340 nm)
Description: For DHFR analysis, the compounds were screened using a kinetic protocol that spectrophotometrically evaluates oxidation of NADH.
Stock solutions of each of the reagents were prepared in the following concentrations. Dilutions of the stock solutions were prepared prior to running the assay in the concentrations indicated below. H2 folate was dissolved in DMSO to about 10 mM and then diluted with water to a concentration of 0.1 mM.
The DHFR reaction was monitored at 340 nm prior to and after addition of the inhibitor to detect background reaction with the inhibitor. Solutions of 100 μl of the inhibitors in DMSO were prepared to provide a final DMSO concentration of 5% of the total assay volume. These solutions were incubated for 6 minutes at 25° C. in a 992 μl of a solution containing 0.1 M Tris-HCl, pH 7.0, 150 mM KCl, 5 μM H2 folate, and 52 μM NADH. The oxidation reaction was then initiated with 8 μl of DHFR (0.047 mg/ml). After the enzyme was added, the solution was mixed for 20 seconds, and the reaction was run for 10 minutes. After a 50 second lag, the samples were read in a Cary spectrophotometer at 340 nm. Reading of the samples was continued until 300 seconds. Cuvette #1 always contained the control reaction (no inhibitor), and cuvette #2 always contained the positive control reaction in which Cibacron Blue at 3 μM was substituted for inhibitor to yield 50 to 70% inhibition. The substrate was kept at a level at least 10 times the Km.

[2] = biological target: T1, HMG CoA reductase (HMGCoAR) (UniProt P04035); assay: HMGCoAR kinetic assay, spectrophotometric oxidation of NADPH (340 nm); details: for IC50: common ligand mimics, Examples 23/24
T1 sequence (P04035 1-888): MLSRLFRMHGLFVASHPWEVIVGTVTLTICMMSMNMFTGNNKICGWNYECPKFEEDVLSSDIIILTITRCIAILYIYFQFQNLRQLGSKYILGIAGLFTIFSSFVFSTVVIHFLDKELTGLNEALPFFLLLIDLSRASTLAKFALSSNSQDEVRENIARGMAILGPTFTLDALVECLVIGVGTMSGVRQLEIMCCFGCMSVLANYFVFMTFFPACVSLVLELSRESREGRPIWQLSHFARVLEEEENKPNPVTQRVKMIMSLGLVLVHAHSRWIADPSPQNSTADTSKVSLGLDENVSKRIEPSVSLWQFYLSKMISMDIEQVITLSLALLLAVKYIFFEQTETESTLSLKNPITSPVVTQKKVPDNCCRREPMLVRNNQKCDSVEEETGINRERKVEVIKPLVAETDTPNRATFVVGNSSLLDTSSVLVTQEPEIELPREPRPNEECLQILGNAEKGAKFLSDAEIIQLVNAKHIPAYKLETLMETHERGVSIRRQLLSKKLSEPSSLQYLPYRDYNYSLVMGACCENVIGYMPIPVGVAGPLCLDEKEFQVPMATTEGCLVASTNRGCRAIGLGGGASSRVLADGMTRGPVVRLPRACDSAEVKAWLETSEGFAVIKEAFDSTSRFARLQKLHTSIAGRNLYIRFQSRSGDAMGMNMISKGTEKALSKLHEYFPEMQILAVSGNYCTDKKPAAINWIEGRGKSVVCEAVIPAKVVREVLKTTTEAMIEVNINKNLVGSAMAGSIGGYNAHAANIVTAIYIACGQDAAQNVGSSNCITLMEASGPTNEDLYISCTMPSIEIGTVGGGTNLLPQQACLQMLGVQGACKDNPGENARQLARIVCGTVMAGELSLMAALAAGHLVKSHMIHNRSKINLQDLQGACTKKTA
Description: For HMGCoAR analysis, the compounds were screened using a kinetic protocol that spectrophotometrically evaluates oxidation of NADPH.
Stock solutions of each of the reagents were prepared in the following concentrations. Dilutions of the stock solutions were prepared prior to running the assay in the concentrations indicated below. The enzyme was diluted in 1 M NaCl. To prepare the dilution buffer, 10 μl of HMGCoAR (1 mg/ml) was mixed with 133 μl of 3 M NaCl solution and 257 μl of 25 mM KH2PO4 buffer (pH 7.5; containing 50 mM NaCl, […] EDTA (ethylenediaminetetraacetic acid), and 5 mM DTT (dithiothreitol).
The HMGCoAR reaction was monitored at 340 nm prior to and after addition of the inhibitor to detect background reaction with the inhibitor. Solutions of 100 μM of the inhibitors in DMSO were prepared to provide a final DMSO concentration of 2% of the total assay volume. These solutions were incubated for 6 minutes at 25° C. in a 994 μl of a solution containing 25 mM KH2PO4, pH 7.5, 160 μM HMGCoA, 13 μM NADPH, 50 mM NaCl, 1 mM EDTA, and 5 mM DTT. The reaction was then initiated with 5 μl of HMGCoAR enzyme (1:40 dilution of 0.65 mg/ml). After the enzyme was added, the solution was mixed for 20 seconds, and the reaction was run for 10 minutes. After a 50 second lag, the samples were read in a Cary spectrophotometer at 340 nm. Reading of the samples was continued until 300 seconds. Cuvette #1 contained the control reaction (no inhibitor), and cuvette #2 contained the positive control reaction in which Cibacron Blue at 2.05 μM was substituted for inhibitor to yield 50 to 70% inhibition. The substrate was kept at a level at least 10 times the Km.

[3] = biological target: inosine-5′-monophosphate dehydrogenase (IMPDH); assay: IMPDH kinetic assay, spectrophotometric reduction of NAD+ (340 nm); details: for IC50: common ligand mimics, Examples 23/24
Description: For IMPDH analysis, the compounds were screened using a kinetic protocol that spectrophotometrically evaluates reduction of NAD+.
Stock solutions of each of the reagents were prepared in the following concentrations. Dilutions of the stock solutions were prepared prior to running the assay in the concentrations indicated below.
The IMPDH reaction was monitored at 340 nm prior to and after addition of the inhibitor to detect background reaction with the inhibitor. Solutions of 100 μl of the inhibitors in DMSO were prepared to provide a final DMSO concentration of 5% of the total assay volume. These solutions were incubated for 6 minutes at 37° C. in a 992 μl of a solution containing 0.1 M Tris-HCl, pH 8.0, 0.25 M KCl, 0.3% glycerol, 30 μM NAD+, and 600 μM IMP (inosine monophosphate). The reaction was then initiated with 8 μl of IMPDH (0.75 μg/ml). After the enzyme was added, the solution was mixed for 20 seconds, and the reaction was run for 10 minutes. After a 50 second lag, the samples were read in a Cary spectrophotometer at 340 nm. Reading of the samples was continued until 300 seconds. Cuvette #1 contained the control reaction (no inhibitor), and cuvette #2 contained the positive control reaction in which Cibacron Blue was substituted for inhibitor. The substrate was kept at a level at least 10 times the Km.

[4] = read-out: IC50 for DHFR; common ligand mimics, Examples 23/24
[5] = common ligand mimics, Examples 23/24; read-out: IC50 for DHFR

Chain of dihydrofolate reductase (DHFR) (P00374 whole entry): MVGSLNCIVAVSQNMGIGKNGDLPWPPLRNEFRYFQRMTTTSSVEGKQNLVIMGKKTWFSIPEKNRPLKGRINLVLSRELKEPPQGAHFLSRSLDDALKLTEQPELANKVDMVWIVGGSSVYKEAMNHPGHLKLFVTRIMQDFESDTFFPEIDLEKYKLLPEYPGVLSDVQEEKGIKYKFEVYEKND

| SMILES | IC50 [1, 4] [µM] | IC50 [2] [µM] | IC50 [3] [µM] | IC50 [1, 5] [µM] | inhibition of HMGCoAR (in words) ([2]; Example 24 (FIG. 6)) | inhibition of IMPDH (in words) ([3]; Example 24 (FIG. 6)) |
| --- | --- | --- | --- | --- | --- | --- |
| N=C1NC(=O)C(=Cc2ccc(O)c([N+](=O)[O-])c2)S1 [5-(4-hydroxy-3-nitro-benzylidene)-2-imino-thiazolidin-4-one] | > 75 | > 90 | > 75 |  |  |  |
| COc1cc(C=C2SC(N)=NC2=O)ccc1O [5-(4-hydroxy-3-methoxy-benzylidene)-2-imino-thiazolidin-4-one] | > 100 | > 100 | > 100 |  |  |  |
| N=C1NC(=O)C(=Cc2ccc(C(=O)O)cc2)S1 [4-(2-imino-4-oxo-thiazolidin-5-ylidenemethyl)-benzoic acid] |  |  | > 40 | > 20 |  |  |
| COc1cc(O)ccc1C=C1SC(=N)NC1=O [5-(4-hydroxy-2-methoxy-benzylidene)-2-imino-thiazolidin-4-one] |  |  |  | > 100 | no inhibition | no inhibition |
